Laboratory results: ChEMBL document CHEMBL3046897, “Synthesis of 3-{4-[4-dimethylamino-6-(4-methyl-2-oxo-2H-chromen-7-yloxy)-[1,3,5]triazin-2-ylamino]-phenyl}-2-phenyl-5-(4-pyridin-2-yl-piperazin-1-ylmethyl)-thiazolidin-4-one and their biological evaluation” (2012)
≈ marks a conversion by molar mass, not a printed value. Calls of active or inactive are those of the source. The rule behind the calls is not given here.

How the values were obtained:
Pseudomonas aeruginosa [1] = assay: Antibacterial activity against Pseudomonas aeruginosa after 24 hr by agar streak dilution method; format: functional
Salmonella typhi [2] = assay: Antibacterial activity against Salmonella enterica subsp. enterica serovar Typhi after 24 hr by agar streak dilution method; format: functional
Escherichia coli [3] = assay: Antibacterial activity against Escherichia coli at 100 ug/disk after 24 hr by paper disk diffusion method; format: functional; conditions: read-out: IZ
Shigella flexneri [4] = assay: Antibacterial activity against Shigella flexneri after 24 hr by agar streak dilution method; format: functional
Staphylococcus aureus [5] = assay: Antibacterial activity against Staphylococcus aureus after 24 hr by agar streak dilution method; format: functional
Shigella flexneri [6] = assay: Antibacterial activity against Shigella flexneri at 100 ug/disc after 24 hr by paper disk diffusion method; format: functional; conditions: read-out: IZ
Aspergillus clavatus [7] = assay: Antifungal activity against Aspergillus clavatus after 48 hr by agar streak dilution method; format: functional
Candida albicans [8] = assay: Antifungal activity against Candida albicans at 100 ug/ml after 48 hr by agar streak dilution method; format: functional, organism-based
Salmonella typhi [9] = assay: Antibacterial activity against Salmonella enterica subsp. enterica serovar Typhi at 100 ug/disk after 24 hr by paper disk diffusion method; format: functional; conditions: read-out: IZ
Staphylococcus aureus [10] = assay: Antibacterial activity against Staphylococcus aureus at 100 ug/disc after 24 hr by paper disk diffusion method; format: functional; conditions: read-out: IZ
Aspergillus fumigatus [11] = assay: Antifungal activity against Aspergillus fumigatus at 100 ug/ml after 48 hr by agar streak dilution method; format: functional, organism-based
Proteus vulgaris [12] = assay: Antibacterial activity against Proteus vulgaris at 100 ug/disk after 24 hr by paper disk diffusion method; format: functional; conditions: read-out: IZ
Aspergillus niger [13] = assay: Antifungal activity against Aspergillus niger at 100 ug/disk after 48 hr by paper disk diffusion method; format: functional; conditions: read-out: IZ
Proteus vulgaris [14] = assay: Antibacterial activity against Proteus vulgaris after 24 hr by agar streak dilution method; format: functional
Escherichia coli [15] = assay: Antibacterial activity against Escherichia coli after 24 hr by agar streak dilution method; format: functional
Klebsiella pneumoniae [16] = assay: Antibacterial activity against Klebsiella pneumoniae at 100 ug/ml after 24 hr by agar streak dilution method; format: functional, organism-based
Pseudomonas aeruginosa [17] = assay: Antibacterial activity against Pseudomonas aeruginosa at 100 ug/disk after 24 hr by paper disk diffusion method; format: functional; conditions: read-out: IZ
Aspergillus clavatus [18] = assay: Antifungal activity against Aspergillus clavatus at 100 ug/disc after 48 hr by paper disk diffusion method; format: functional; conditions: read-out: IZ
Bacillus subtilis [19] = assay: Antibacterial activity against Bacillus subtilis at 100 ug/disk after 24 hr by paper disk diffusion method; format: functional; conditions: read-out: IZ
Aspergillus niger [20] = assay: Antifungal activity against Aspergillus niger after 48 hr by agar streak dilution method; format: functional
Bacillus subtilis [21] = assay: Antibacterial activity against Bacillus subtilis after 24 hr by agar streak dilution method; format: functional
Candida albicans [22] = assay: Antifungal activity against Candida albicans after 48 hr by agar streak dilution method; format: functional
Klebsiella pneumoniae [23] = assay: Antibacterial activity against Klebsiella pneumoniae at 100 ug/disk after 24 hr by paper disk diffusion method; format: functional; conditions: read-out: IZ
Klebsiella pneumoniae [24] = assay: Antibacterial activity against Klebsiella pneumoniae after 24 hr by agar streak dilution method; format: functional
Candida albicans [25] = assay: Antifungal activity against Candida albicans at 100 ug/disk after 48 hr by paper disk diffusion method; format: functional; conditions: read-out: IZ
Aspergillus fumigatus [26] = assay: Antifungal activity against Aspergillus fumigatus after 48 hr by agar streak dilution method; format: functional
Shigella flexneri [27] = assay: Antibacterial activity against Shigella flexneri at 100 ug/ml after 24 hr by agar streak dilution method; format: functional, organism-based
Aspergillus fumigatus [28] = assay: Antifungal activity against Aspergillus fumigatus at 100 ug/disc after 48 hr by paper disk diffusion method; format: functional; conditions: read-out: IZ

SMILES | MIC (Pseudomonas aeruginosa [1]) [µg/mL] | MIC (Salmonella typhi [2]) [µg/mL] | zone of inhibition at 100 µg/disc (Escherichia coli [3]) [mm] | MIC (Shigella flexneri [4]) [µg/mL] | MIC (Staphylococcus aureus [5]) [µg/mL] | zone of inhibition at 100 µg/disc (Shigella flexneri [6]) [mm] | MIC (Aspergillus clavatus [7]) [µg/mL] | zone of inhibition at 100 µg/disc (Salmonella typhi [9]) [mm] | zone of inhibition at 100 µg/disc (Staphylococcus aureus [10]) [mm] | zone of inhibition at 100 µg/disc (Proteus vulgaris [12]) [mm] | zone of inhibition at 100 µg/disc (Aspergillus niger [13]) [mm] | MIC (Proteus vulgaris [14]) [µg/mL] | MIC (Escherichia coli [15]) [µg/mL] | zone of inhibition at 100 µg/disc (Pseudomonas aeruginosa [17]) [mm] | zone of inhibition at 100 µg/disc (Aspergillus clavatus [18]) [mm] | zone of inhibition at 100 µg/disc (Bacillus subtilis [19]) [mm] | MIC (Aspergillus niger [20]) [µg/mL] | MIC (Bacillus subtilis [21]) [µg/mL] | zone of inhibition at 100 µg/disc (Klebsiella pneumoniae [23]) [mm] | MIC (Klebsiella pneumoniae [24]) [µg/mL] | other results
COc1ccc(/C=N/c2ccc(Nc3nc(Oc4ccc5c(C)cc(=O)oc5c4)nc(N(C)C)n3)cc2)cc1OC | 100 (≈ 181 µM) | 100 (≈ 181 µM) | < 10 | 100 (≈ 181 µM) | 50 (≈ 90.5 µM) | 13 | 100 (≈ 181 µM) | 12 | 16 | < 10 | 12 | 100 (≈ 181 µM) | 100 (≈ 181 µM) | 10 | < 10 | 12 | 100 (≈ 181 µM) | 100 (≈ 181 µM) |  |  | Activity (Candida albicans [8]): inactive; Activity (Aspergillus fumigatus [11]): inactive; Activity (Klebsiella pneumoniae [16]): inactive
Cc1cc(=O)oc2cc(Oc3nc(Nc4ccc(N5C(=O)CSC5c5ccccc5)cc4)nc(N(C)C)n3)ccc12 (configuration not stated) | 100 (≈ 176 µM) | 100 (≈ 176 µM) | 14 | 100 (≈ 176 µM) | 100 (≈ 176 µM) | 12 | 100 (≈ 176 µM) | 11 | 12 | 10 | 11 | 100 (≈ 176 µM) | 100 (≈ 176 µM) | 15 | 13 | 13 | 100 (≈ 176 µM) | 100 (≈ 176 µM) | < 10 | 100 (≈ 176 µM) | Activity (Aspergillus fumigatus [11]): inactive; MIC (Candida albicans [22]): 100 µg/mL (≈ 176 µM); zone of inhibition at 100 µg/disc (Candida albicans [25]): 10 mm
Cc1cc(=O)oc2cc(Oc3nc(Nc4ccc(/N=C/c5ccccc5Br)cc4)nc(N(C)C)n3)ccc12 | 50 (≈ 87.5 µM) | 100 (≈ 175 µM) | 14 |  | 100 (≈ 175 µM) |  | 50 (≈ 87.5 µM) | < 10 | 13 | 13 | 15 | 100 (≈ 175 µM) | 100 (≈ 175 µM) | 18 | 18 | 16 | 100 (≈ 175 µM) | 50 (≈ 87.5 µM) | < 10 | 100 (≈ 175 µM) | MIC (Aspergillus fumigatus [26]): 25 µg/mL (≈ 43.7 µM); Activity (Shigella flexneri [27]): inactive; MIC (Candida albicans [22]): 50 µg/mL (≈ 87.5 µM); zone of inhibition at 100 µg/disc (Aspergillus fumigatus [28]): 20 mm; zone of inhibition at 100 µg/disc (Candida albicans [25]): 19 mm
Cc1cc(=O)oc2cc(Oc3nc(Nc4ccc(N5C(=O)CSC5c5ccccc5C(=O)O)cc4)nc(N(C)C)n3)ccc12 (configuration not stated) | 100 (≈ 164 µM) | 100 (≈ 164 µM) | < 10 | 100 (≈ 164 µM) | 100 (≈ 164 µM) | 14 | 100 (≈ 164 µM) | < 10 | 16 | 11 | 12 | 100 (≈ 164 µM) | 100 (≈ 164 µM) | 14 | 13 | 14 | 100 (≈ 164 µM) | 100 (≈ 164 µM) | 12 | 100 (≈ 164 µM) | MIC (Aspergillus fumigatus [26]): 100 µg/mL (≈ 164 µM); Activity (Candida albicans [8]): inactive; zone of inhibition at 100 µg/disc (Aspergillus fumigatus [28]): 10 mm
Cc1cc(=O)oc2cc(Oc3nc(Nc4ccc(N5C(=O)C(CN6CCN(c7ccccn7)CC6)SC5c5ccc([N+](=O)[O-])cc5)cc4)nc(N(C)C)n3)ccc12 (configuration not stated) | 100 (≈ 127 µM) | 50 (≈ 63.5 µM) | 16 | 100 (≈ 127 µM) | 100 (≈ 127 µM) | 14 | 50 (≈ 63.5 µM) | 18 | 16 | 10 | 15 | 100 (≈ 127 µM) | 100 (≈ 127 µM) | 13 | 20 | 13 | 100 (≈ 127 µM) | 100 (≈ 127 µM) | 15 | 100 (≈ 127 µM) | MIC (Aspergillus fumigatus [26]): 50 µg/mL (≈ 63.5 µM); MIC (Candida albicans [22]): 100 µg/mL (≈ 127 µM); zone of inhibition at 100 µg/disc (Aspergillus fumigatus [28]): 18 mm; zone of inhibition at 100 µg/disc (Candida albicans [25]): 13 mm
Cc1ccc(C2SCC(=O)N2c2ccc(Nc3nc(Oc4ccc5c(C)cc(=O)oc5c4)nc(N(C)C)n3)cc2)cc1 (configuration not stated) | 50 (≈ 86.1 µM) | 25 (≈ 43.1 µM) | 13 | 25 (≈ 43.1 µM) | 50 (≈ 86.1 µM) | 20 | 50 (≈ 86.1 µM) | 19 | 18 | 14 | 20 | 100 (≈ 172 µM) | 100 (≈ 172 µM) | 20 | 19 | 19 | 25 (≈ 43.1 µM) | 25 (≈ 43.1 µM) | 15 | 100 (≈ 172 µM) | MIC (Aspergillus fumigatus [26]): 50 µg/mL (≈ 86.1 µM); MIC (Candida albicans [22]): 50 µg/mL (≈ 86.1 µM); zone of inhibition at 100 µg/disc (Aspergillus fumigatus [28]): 18 mm; zone of inhibition at 100 µg/disc (Candida albicans [25]): 20 mm
Cc1cc(=O)oc2cc(Oc3nc(Nc4ccc(N5C(=O)CSC5c5ccc(O)cc5)cc4)nc(N(C)C)n3)ccc12 (configuration not stated) | 25 (≈ 42.9 µM) | 12.5 (≈ 21.5 µM) | 24 | 50 (≈ 85.8 µM) | 12.5 (≈ 21.5 µM) | 19 | 50 (≈ 85.8 µM) | 23 | 22 | 21 | 24 | 12.5 (≈ 21.5 µM) | 12.5 (≈ 21.5 µM) | 21 | 18 | 20 | 12.5 (≈ 21.5 µM) | 12.5 (≈ 21.5 µM) | 15 | 100 (≈ 172 µM) | MIC (Aspergillus fumigatus [26]): 12.5 µg/mL (≈ 21.5 µM); MIC (Candida albicans [22]): 50 µg/mL (≈ 85.8 µM); zone of inhibition at 100 µg/disc (Aspergillus fumigatus [28]): 21 mm; zone of inhibition at 100 µg/disc (Candida albicans [25]): 19 mm
